Data: patent US12527886B2, “Radiopharmaceuticals and composition for thrombus imaging” (THE ASAN FOUNDATION, priority 2020, dated 2026)

Test: Stability of Tc-99m labeled compound, labeling purity by HPLC
Type: physicochemical
Details: 99mTc-labeled, cysteine and VB1, until 4 hours (Table 11)
Description: 2 mL of Tc-99m was added dropwise to a lyophilized vial including 0.1 mg of GP-104, 15 μg of SnCl2, and 10 μg of cysteine, the vial was allowed to stand at room temperature for 10 minutes, and the reaction was terminated by adjusting pH to 7 using a NaOH solution. Labeling purity was confirmed to be 93.21% by HPLC (analysis conditions: Luna C18 250×4.6 mm, phosphate buffer:acetonitrile (100:0, 0 to 5 minutes; 80:20, 5 to 10 minutes; 80:20, 17 minutes; 100:0, 17.1 minutes). 100:0. 20 min), 1.0 mL/min, UV=280 nm).
In order to confirm the effect of cysteine addition after the reaction, the following experiment was performed: 0.1 mg of GP-104 was dissolved in water for injection, the pH was adjusted to about 3.5 when 10 μL of SnCl2 (1.5 mg/mL) and 2 mL of Tc-99m were added thereto, and the resulting mixture was allowed to stand at room temperature for 10 minutes. The reaction was terminated by adjusting the pH to 7 using a NaOH solution and 10 μL of cysteine (1.0 mg/mL). Labeling purity was confirmed to be 91.4% using HPLC in the same manner as in Example 2-7.
After 0.1 mg of GP-104 was dissolved in water for injection, pH was adjusted to about 3.5 and the resulting solution was allowed to stand at room temperature for 10 minutes when 10 μL of SnCl2 (1.5 mg/mL), 10 μL of cysteine (1.0 mg/mL) and 2 mL of Tc-99m were added thereto, and the reaction was terminated by adjusting the pH to 7 using a NaOH solution. Labeling purity was confirmed to be 94.84% using HPLC in the same manner as in Example 2-7.
HCl and NaOH was additionally added dropwise to the solution of Example 2-8 to perform a stability evaluation by adjusting the final pH of the solution to acidic (pH 5.5) and basic (pH 8.5) conditions, and labeling purity was confirmed using HPLC in the same manner as in Example 2-7.
HCl and NaOH was additionally added dropwise to the solution of Example 2-9 to perform a stability evaluation by adjusting the final pH of the solution to acidic (pH 5.5) and basic (pH 8.5) conditions, and labeling purity was confirmed using HPLC in the same manner as in Example 2-7.
HCl and NaOH was additionally added dropwise to the solution of Example 2-10 to perform a stability evaluation by adjusting the final pH of the solution to acidic (pH 5.5) and basic (pH 8.5) conditions, and labeling purity was confirmed using HPLC in the same manner as in Example 2-7.
0.1 mg of GP-105 was dissolved in water for injection, the pH was adjusted to about 3.5 when 10 μL of SnCl2 (1.5 mg/mL) and 2 mL of Tc-99m were added thereto, and the resulting mixture was allowed to stand at room temperature for 10 minutes. The reaction was terminated by adjusting the pH to 7 using a NaOH solution and 10 μL of cysteine (1.0 mg/mL). Labeling purity was confirmed to be 98.1% using HPLC in the same manner as in Example 2-7.
HCl and NaOH was additionally added dropwise to the solution of Example 2-12 to perform a stability evaluation by adjusting the final pH of the solution to acidic (pH 5.5) and basic (pH 8.5) conditions, and labeling purity was confirmed using HPLC in the same manner as in Example 2-7.
HCl and NaOH was additionally added dropwise to the solution of Example 2-13 to perform a stability evaluation by adjusting the final pH of the solution to acidic (pH 5.5) and basic (pH 8.5) conditions, and labeling purity was confirmed using HPLC in the same manner as in Example 2-7.
HCl and NaOH was additionally added dropwise to the solution of Example 2-14 to perform a stability evaluation by adjusting the final pH of the solution to acidic (pH 5.5) and basic (pH 8.5) conditions, and labeling purity was confirmed using HPLC in the same manner as in Example 2-7.

## O=C(O)C[C@H](NC(=O)[C@@H]1CCCN(C(=O)CCC2CCNCC2)C1)c1cncc(OCCNC(=O)CN(CC(=O)O)CC(=O)O)c1 [GP-105, 2,2′-((2-((2-((5-((S)-2-carboxy-1-((R)-1-(3-(piperidin-4-yl)propanoyl)piperidine-3-carboxamido)ethyl)pyridin-3-yl)oxy)ethyl)amino)-2-oxoethyl)azanediyl)diacetic acid]
Acidic conditions
  radiochemical purity: ≥ 98%
Basic conditions
  radiochemical purity: ≥ 90%
pH of 7
  radiochemical purity: ≥ 94%
